In patent publication US9421273B2, “Silicon-containing fumaric acid esters” (Biogen Idec MA Inc., priority 2011, dated 2016):
Where a name gives a salt, the structure may show the parent alone.

Legend:
[1] = tested on: Nrf2 (ARE-luciferase reporter) in DLD-1/ARE-E2 cells; assay: Nrf2 activation cell-based assay, ARE-luciferase reporter, DLD-1/ARE-E2 cell line; design: species or system Human; conditions: for Concentration at maximum Nrf2 activation fold change (@ [uM]) / Maximum Nrf2 Activation Fold Change: DLD-1/ARE-E2; for Maximum Nrf2 Activation Fold Change: luciferase fold change over DMSO control; for Activation of ARE-dependent signaling of the luciferase reporter construct: summary in words of Table 1 (both reporter cell lines)
Experimental: (§1) Human cancer cell line DLD-1 and breast cancer cell line MCF7 reporter stable cell lines were generated by transfection with a firefly luciferase reporter construct harboring the luciferase cDNA cloned downstream of eight catenated copies of the antioxidant response element (ARE: SEQ ID NO.:1).
(§2) To measure Nrf2 activation in the ARE-luciferase reporter cell lines, the cells were plated in 96-well plates at 20-50 k cells/well 24 hours prior to stimulation with the test compounds. The test compounds were prepared in dimethylsulfoxide (DMSO) and diluted with culture media to required concentrations (final DMSO concentrations <0.3%). The reporter cells were harvested 24 hours-48 hours after addition of the compounds and lysed for detection of luciferase activity. Luciferase activity in the lysates was monitored using the Bright-Glo Luciferase Assay System of Promega and Tecan Genios Pro plate reader.
(§3) Luciferase induction in the compound-treated cells was calculated as fold change over the baseline activity detected in control cultures treated with DMSO-containing media.

[2] = tested on: Nrf2 (ARE-luciferase reporter) in MCF7/ARE-D3 cells; assay: Nrf2 activation cell-based assay, ARE-luciferase reporter, MCF7/ARE-D3 cell line; design: species or system Human; conditions: for Maximum Nrf2 Activation Fold Change: luciferase fold change over DMSO control
Experimental: as §1, §2, §3

| SMILES | Concentration at maximum Nrf2 activation fold change (@ [uM]) ([1]; 24 hr stimulation) [µM] | Maximum Nrf2 Activation Fold Change ([1]; 24 hr stimulation) | Concentration at maximum Nrf2 activation fold change (@ [uM]) ([1]; 48 hr stimulation) [µM] | Maximum Nrf2 Activation Fold Change ([1]; 48 hr stimulation) | Activation of ARE-dependent signaling of the luciferase reporter construct [1] | Concentration at maximum Nrf2 activation fold change (@ [uM]) ([2]; 24 hr stimulation) [µM] | Maximum Nrf2 Activation Fold Change ([2]; 24 hr stimulation) | Concentration at maximum Nrf2 activation fold change (@ [uM]) ([2]; 48 hr stimulation) [µM] | Maximum Nrf2 Activation Fold Change ([2]; 48 hr stimulation) |
| --- | --- | --- | --- | --- | --- | --- | --- | --- | --- |
| COC(=O)/C=C/C(=O)O[Si](C)(C)OC(=O)/C=C/C(=O)OC [Compound 11, (E)-O,O′-(dimethylsilanediyl)dimethyl difumarate] | 1000 | 42 | 1000 | 43 | able to activate ARE-dependent signaling | 750 | 97 | 500 | 126 |
| COC(=O)/C=C/C(=O)OC[Si](OC)(OC)OC [Compound 12, methyl ((trimethoxysilyl)methyl) fumarate] | 250 | 24 | 375 | 48 | able to activate ARE-dependent signaling | 500 | 49 | 500 | 65 |
| COC(=O)/C=C/C(=O)OC [DMF, dimethyl fumarate, reference compound] | 31 | 11 | 47 | 13 | – | 94 | 24 | 94 | 45 |
| COC(=O)/C=C/C(=O)O [MMF, monomethyl fumarate, reference compound] | 1000 | 7 | 1000 | 14 | – | 1000 | 56 | 1000 | 88 |
